Source: patent US5756462A, “Pore forming peptides from Geolycosa riogrande” (priority 1996, dated 1998)
“Also recorded” adds a separate entry of the source.

Key:
Type in all cases: cell-based
HL-60 cells [1] = assay: Mobilization of intracellular Ca2+ after pertussis toxin pretreatment; conditions: pretreatment 20 hrs with 100 ng/ml pertussis toxin
Description: Increases in [Ca^2+ ]i arising from the mobilization of intracellular Ca^2+ were inhibited by pretreatment for 20 hrs with 100 ng/ml pertussis toxin (PTx).

[2] = tested on: HL-60 cells differentiated with dibutryl cAMP; assay: Mobilization of intracellular Ca2+ in fura-2 loaded differentiated HL-60 cells; conditions: differentiated HL-60 cells loaded with fura-2
Description: The three peptides of the present invention isolated from the venom of the spider Geolycosa riogrande, designated Geolycosa 17, 15a and 15b, contain linear sequences of 25 (Geolycosa 17) or 27 (Geolycosa 15a and 15b) amino acids, lack cysteine, and are enriched in lysine. […] When tested at concentrations of 0.5 to 2 μM, all three peptides caused rapid and transient increases in [Ca^2+ ]i that persisted in the absence of extracellular Ca^2+ but were blocked when cellular stores of Ca^2+ were depleted by pretreatment with ionomycin.

HL-60 cells [3] = tested on: HL-60 cells
Description: Uke the effect of many other pore formers, the effects of these peptides on EB uptake were augmented when the total extracellular divalent cation concentration was reduced to 0.1 mM and inhibited when extracellular Mg^2+ was increased from 1 to 5 mM.
The ability of Geolycosa 17 to form pores in membranes was tested in T3 fibroblasts, parathyroid cells, and differentiated and undifferentiated HL60 cells. Pore formation was assessed by measuring the permeability of the cells to ethidium bromide (EB, MW 394). Concentrations of Geolycosa 17 greater than 7.5 μM increased EB uptake in all cells tested.

Compound | effect of PTx pretreatment on mobilization of intracellular Ca2+ (HL-60 cells [1]) | mobilization of intracellular Ca2+ [2] | EB uptake / pore formation at concentrations effective in mobilizing intracellular Ca2+ (HL-60 cells [3]) | permeabilization of cells indexed by uptake of ethidium bromide (EB) (HL-60 cells [3]) | rank order of potency for causing permeabilization of HL-60 cells (HL-60 cells [3]) | EC50 (HL-60 cells [3]; EB uptake, read-out: EC50 for causing pore formation) [nM] | potency relative to mastoparan (HL-60 cells [3]) | effect of PTx on pore formation (HL-60 cells [3]; pertussis toxin pretreatment) | EB uptake at slightly higher concentrations than those mobilizing Ca2+ (HL-60 cells [3]) | potency relative to Geolycosa 15a and Geolycosa 17 (HL-60 cells [3])
Nc1ncnc2c1ncn2[C@@H]1O[C@H](COP(=O)(O)OP(=O)(O)OP(=O)(O)O)[C@@H](O)[C@H]1O [ATP, reference compound] | blocked | – | – | – | – | – | – | – | – | –
CC[C@H](C)[C@H](NC(=O)CN)C(=O)NCC(=O)N[C@@H](C)C(=O)N[C@H](C(=O)N[C@@H](CC(C)C)C(=O)N[C@@H](CCCCN)C(=O)N[C@H](C(=O)N[C@@H](CC(C)C)C(=O)N[C@H](C(=O)N[C@H](C(=O)NCC(=O)N[C@@H](CC(C)C)C(=O)N1CCC[C@H]1C(=O)N[C@@H](C)C(=O)N[C@@H](CC(C)C)C(=O)N[C@H](C(=O)N[C@@H](CO)C(=O)N[C@@H](Cc1c[nH]c2ccccc12)C(=O)N[C@H](C(=O)N[C@@H](CCCCN)C(=O)N[C@@H](CCCNC(=N)N)C(=O)N[C@@H](CCCCN)C(=O)N[C@@H](CCCNC(=N)N)C(=O)N[C@@H](CCC(N)=O)C(=O)N[C@@H](CCC(N)=O)C(N)=O)[C@@H](C)CC)[C@@H](C)CC)[C@@H](C)O)[C@@H](C)O)C(C)C)C(C)C [melittin, reference compound] | – | caused the mobilization of intracellular Ca^2+ | caused significant pore formation | permeabilized HL-60 cells | melittin>Geolycosa 15b>Geolycosa 17=Geolycosa 15a>mastoparan | ~250 | – | – | – | –
Geolycosa 15a (KIKWLKAMKSIAKFIAKKQMKKHLGGE) | blocks | mobilize intracellular Ca^2+ | even less prone to cause increases in EB uptake | permeabilized cells | melittin>Geolycosa 15b>Geolycosa 17=Geolycosa 15a>mastoparan | – | about twice as potent | without effect | – | –
Geolycosa 15b (KIKWFKTMKSIAKFIAKEQMKKHLKGE) | failed to affect | mobilize intracellular Ca^2+; also recorded: caused the mobilization of intracellular Ca^2+ | little uptake of EB | permeabilized cells | melittin>Geolycosa 15b>Geolycosa 17=Geolycosa 15a>mastoparan | – | – | – | a large uptake of EB | about twice as potent
